From publication PMC8745178, “Methyl 2-Halo-4-Substituted-5-Sulfamoyl-Benzoates as High Affinity and Selective Inhibitors of Carbonic Anhydrase IX” (International Journal of Molecular Sciences, 2021)
“And” between values parts separate entries of the source, which are not always exact repeats. Equal entries are not always repeated.

Experiments:
[1] = target: CAVA (Homo sapiens, UniProt P35218); assay: fluorescent thermal shift assay (FTSA), CAVA; format: binding; conditions: 37 °C; for ΔGintr CAVA: converted from Kd_intr, independent of pH; for ΔGobs CAVA: converted from Kd_obs, pH 7.0, FTSA
Chain of CAVA (P35218 39-305): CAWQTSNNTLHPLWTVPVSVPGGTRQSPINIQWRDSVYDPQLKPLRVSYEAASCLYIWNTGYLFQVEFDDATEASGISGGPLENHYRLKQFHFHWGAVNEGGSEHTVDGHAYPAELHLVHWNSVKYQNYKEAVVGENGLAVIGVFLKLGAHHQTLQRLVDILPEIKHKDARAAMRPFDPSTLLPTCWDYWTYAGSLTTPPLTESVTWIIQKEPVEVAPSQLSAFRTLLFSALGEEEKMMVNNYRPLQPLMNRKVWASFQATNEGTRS

[2] = target: T1, CAXII (Homo sapiens, UniProt O43570); conditions: for ΔHintr CAXII / -TΔSintr CAXII: intrinsic, 37 °C; for ΔHintr CAXII: independent of pH and buffer; for ΔHobs CAXII: observed, sodium phosphate buffer pH 7.0, 37 °C, ITC
T1 sequence (O43570 25-354): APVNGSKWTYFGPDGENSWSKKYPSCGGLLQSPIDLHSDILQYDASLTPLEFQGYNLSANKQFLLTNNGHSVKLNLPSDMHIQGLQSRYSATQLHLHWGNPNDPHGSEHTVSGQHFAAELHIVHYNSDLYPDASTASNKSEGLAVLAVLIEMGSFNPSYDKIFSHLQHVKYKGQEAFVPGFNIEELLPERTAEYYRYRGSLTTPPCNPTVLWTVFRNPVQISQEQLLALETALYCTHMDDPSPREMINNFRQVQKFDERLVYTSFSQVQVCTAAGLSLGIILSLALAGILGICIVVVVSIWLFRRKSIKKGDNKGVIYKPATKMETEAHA

[3] = target: CAXIII (Homo sapiens, UniProt Q8N1Q1); assay: fluorescent thermal shift assay (FTSA), CAXIII; format: binding; conditions: 37 °C; for ΔGobs CAXIII: converted from Kd_obs, pH 7.0, FTSA; for ΔGintr CAXIII: converted from Kd_intr, independent of pH
Chain of CAXIII (Q8N1Q1 whole entry): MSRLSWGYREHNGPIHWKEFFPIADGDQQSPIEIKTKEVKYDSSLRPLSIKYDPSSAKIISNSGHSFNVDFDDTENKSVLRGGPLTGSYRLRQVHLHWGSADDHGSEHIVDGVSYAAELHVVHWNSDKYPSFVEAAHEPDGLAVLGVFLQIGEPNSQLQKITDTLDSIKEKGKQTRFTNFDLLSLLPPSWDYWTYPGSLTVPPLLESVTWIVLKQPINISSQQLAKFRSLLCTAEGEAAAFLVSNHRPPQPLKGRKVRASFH

[4] = target: CAVB (Homo sapiens, UniProt Q9Y2D0); assay: fluorescent thermal shift assay (FTSA), CAVB; format: binding; conditions: 37 °C; for ΔGintr CAVB: converted from Kd_intr, independent of pH; for ΔGobs CAVB: converted from Kd_obs, pH 7.0, FTSA
Chain of CAVB (Q9Y2D0 34-317): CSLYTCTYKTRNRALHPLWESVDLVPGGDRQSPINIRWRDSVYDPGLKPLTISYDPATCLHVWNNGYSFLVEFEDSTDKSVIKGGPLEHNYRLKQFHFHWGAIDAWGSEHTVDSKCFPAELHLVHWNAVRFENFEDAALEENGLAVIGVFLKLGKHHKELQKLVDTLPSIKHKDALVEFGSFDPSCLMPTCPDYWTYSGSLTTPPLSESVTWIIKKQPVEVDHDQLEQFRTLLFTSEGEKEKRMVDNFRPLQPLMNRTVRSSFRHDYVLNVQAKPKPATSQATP

[5] = target: CAVI (Homo sapiens, UniProt P23280); assay: fluorescent thermal shift assay (FTSA), CAVI; format: binding; conditions: 37 °C; for ΔGintr CAVI: converted from Kd_intr, independent of pH; for ΔGobs CAVI: converted from Kd_obs, pH 7.0, FTSA
Chain of CAVI (P23280 18-308): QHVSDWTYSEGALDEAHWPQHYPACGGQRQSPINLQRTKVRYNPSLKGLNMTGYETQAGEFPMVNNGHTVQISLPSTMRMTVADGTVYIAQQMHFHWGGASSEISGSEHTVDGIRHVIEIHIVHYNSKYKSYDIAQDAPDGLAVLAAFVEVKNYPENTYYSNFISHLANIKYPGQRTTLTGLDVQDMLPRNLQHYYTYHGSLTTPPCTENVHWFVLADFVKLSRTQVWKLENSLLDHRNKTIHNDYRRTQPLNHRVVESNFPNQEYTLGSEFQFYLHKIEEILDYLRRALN

[6] = target: T2, CAIX (Homo sapiens, UniProt Q16790); assay: fluorescent thermal shift assay (FTSA), CAIX; format: binding; conditions: for ΔGobs CAIX: pH 7
[7] = target: T3, CAI (Homo sapiens, UniProt P00915); assay: fluorescent thermal shift assay (FTSA), CAI; format: binding; conditions: 37 °C; for ΔGintr CAI: converted from Kd_intr, independent of pH; for ΔGobs CAI: converted from Kd_obs, pH 7.0, FTSA
T3 sequence (P00915 whole entry): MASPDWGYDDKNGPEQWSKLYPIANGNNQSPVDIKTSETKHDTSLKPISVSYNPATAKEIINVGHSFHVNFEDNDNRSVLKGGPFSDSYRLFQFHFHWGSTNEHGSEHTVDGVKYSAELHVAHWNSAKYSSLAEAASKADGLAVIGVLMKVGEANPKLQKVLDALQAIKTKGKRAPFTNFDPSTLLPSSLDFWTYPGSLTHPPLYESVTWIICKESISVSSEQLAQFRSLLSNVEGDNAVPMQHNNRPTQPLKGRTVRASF

[8] = target: CAVII (Homo sapiens, UniProt P43166); assay: fluorescent thermal shift assay (FTSA), CAVII; format: binding; conditions: 37 °C; for ΔGintr CAVII: converted from Kd_intr, independent of pH; for ΔGobs CAVII: converted from Kd_obs, pH 7.0, FTSA
Chain of CAVII (P43166 whole entry): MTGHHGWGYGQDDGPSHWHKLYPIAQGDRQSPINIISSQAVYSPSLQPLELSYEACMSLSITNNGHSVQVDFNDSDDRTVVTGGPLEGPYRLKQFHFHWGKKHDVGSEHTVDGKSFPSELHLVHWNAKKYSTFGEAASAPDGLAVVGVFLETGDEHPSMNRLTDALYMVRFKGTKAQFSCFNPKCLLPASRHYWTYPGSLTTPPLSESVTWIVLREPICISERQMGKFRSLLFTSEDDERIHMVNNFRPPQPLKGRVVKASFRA

[9] = 37 °C
[10] = target: CAXIV (Homo sapiens, UniProt Q9ULX7); assay: fluorescent thermal shift assay (FTSA), CAXIV; format: binding; conditions: 37 °C; for ΔGintr CAXIV: converted from Kd_intr, independent of pH; for ΔGobs CAXIV: converted from Kd_obs, pH 7.0, FTSA
Chain of CAXIV (Q9ULX7 16-337): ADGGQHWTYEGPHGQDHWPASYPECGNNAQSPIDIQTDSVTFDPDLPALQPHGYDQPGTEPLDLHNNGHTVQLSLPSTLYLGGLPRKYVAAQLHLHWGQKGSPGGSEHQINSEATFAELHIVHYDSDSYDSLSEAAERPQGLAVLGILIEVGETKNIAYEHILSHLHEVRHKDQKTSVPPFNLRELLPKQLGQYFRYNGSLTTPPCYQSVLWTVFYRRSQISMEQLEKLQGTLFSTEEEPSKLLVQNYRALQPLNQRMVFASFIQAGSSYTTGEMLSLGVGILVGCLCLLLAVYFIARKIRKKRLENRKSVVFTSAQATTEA

[11] = determination of pKa of the sulfonamide group by UV-VIS spectra at various pH; format: physicochemical; conditions: for f RSO2NH-, fraction of deprotonated sulfonamide: at pH 7.0, calculated from pKa; for pKa: calculated from spectra at various pH, 37 °C
[12] = target: T4, CAII (Homo sapiens, UniProt P00918); assay: fluorescent thermal shift assay (FTSA), CAII; format: binding; conditions: 37 °C; for ΔGintr CAII: converted from Kd_intr, independent of pH; for ΔGobs CAII: converted from Kd_obs, pH 7.0, FTSA
[13] = target: CAIII (Homo sapiens, UniProt P07451); assay: fluorescent thermal shift assay (FTSA), CAIII; format: binding; conditions: 37 °C; for ΔGobs CAIII: converted from Kd_obs, pH 7.0, FTSA; for ΔGintr CAIII: converted from Kd_intr, independent of pH
Chain of CAIII (P07451 whole entry): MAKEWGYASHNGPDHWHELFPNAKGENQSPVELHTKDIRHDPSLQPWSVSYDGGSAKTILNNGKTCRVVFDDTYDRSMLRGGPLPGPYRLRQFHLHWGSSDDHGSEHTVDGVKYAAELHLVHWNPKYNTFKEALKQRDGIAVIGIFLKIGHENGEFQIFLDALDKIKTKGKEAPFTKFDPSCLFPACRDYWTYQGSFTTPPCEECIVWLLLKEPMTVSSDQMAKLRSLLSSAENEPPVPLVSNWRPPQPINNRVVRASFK

[14] = target: CAIV (Homo sapiens, UniProt P22748); assay: fluorescent thermal shift assay (FTSA), CAIV; format: binding; conditions: 37 °C; for ΔGintr CAIV: converted from Kd_intr, independent of pH; for ΔGobs CAIV: converted from Kd_obs, pH 7.0, FTSA
Chain of CAIV (P22748 19-312): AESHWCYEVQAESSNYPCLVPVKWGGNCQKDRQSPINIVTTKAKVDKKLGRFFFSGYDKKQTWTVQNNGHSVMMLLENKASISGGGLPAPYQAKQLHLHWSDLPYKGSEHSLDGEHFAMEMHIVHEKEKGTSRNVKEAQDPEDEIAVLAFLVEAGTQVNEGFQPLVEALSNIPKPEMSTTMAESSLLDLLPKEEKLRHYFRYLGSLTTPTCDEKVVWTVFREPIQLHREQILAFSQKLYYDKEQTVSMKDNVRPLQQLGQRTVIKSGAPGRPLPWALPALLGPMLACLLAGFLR

[15] = solubility observed visually and in absorption spectra; format: physicochemical; design: key: low solubility, LS
[16] = target: T1, CAXII; assay: fluorescent thermal shift assay (FTSA), CAXII; format: binding; conditions: 37 °C; for ΔGintr CAXII: converted from Kd_intr, independent of pH; for ΔGobs CAXII: converted from Kd_obs, pH 7.0, FTSA
[17] = target: T4, CAII
[18] = target: T3, CAI
[19] = test system: CAII; assay: fluorescent thermal shift assay (FTSA), CAII; format: binding, human; conditions: intrinsic
[20] = target: T5, mimic-CAIX (mutant of CAII: A65S, N67Q, I91L, F130V, V134L, L203A) (Homo sapiens, UniProt P00918, A65S/F130V/I91L/L203A/N67Q/V134L); conditions: intrinsic, calculated using pKa_CAZn(II)H2O of CAII, 37 °C
[21] = target: T2, CAIX
[22] = target: T5, mimic-CAIX (mutant of CAII: A65S, N67Q, I91L, F130V, V134L, L203A)
[23] = intrinsic, 37 °C, independent of pH and buffer
[24] = observed, sodium phosphate buffer pH 7.0, 37 °C, ITC

SMILES | ΔGintr CAVA [1] [kJ/mol] | ΔGobs CAVA [1] [kJ/mol] | ΔHintr CAXII [2] [kJ/mol] | ΔHobs CAXII [2] [kJ/mol] | ΔGobs CAXIII [3] [kJ/mol] | ΔGintr CAVB [4] [kJ/mol] | ΔGobs CAVB [4] [kJ/mol] | ΔGintr CAVI [5] [kJ/mol] | ΔGobs CAVI [5] [kJ/mol] | ΔGintr CAIX [6] [kJ/mol] | ΔGobs CAIX [6] [kJ/mol] | ΔGintr CAI [7] [kJ/mol] | ΔGobs CAI [7] [kJ/mol] | ΔGintr CAVII [8] [kJ/mol] | ΔGobs CAVII [8] [kJ/mol] | ΔGintr CAXIV [10] [kJ/mol] | ΔGobs CAXIV [10] [kJ/mol] | f RSO2NH-, fraction of deprotonated sulfonamide [11] | ΔGintr CAII [12] [kJ/mol] | ΔGobs CAII [12] [kJ/mol] | further results
COC(=O)c1cc(S(N)(=O)=O)c(SCCc2ccccc2)cc1Cl [Compound 3d, Methyl 2-chloro-4-[(2-phenylethyl)sulfanyl]-5-sulfamoylbenzoate] | -39.9 | -23.4 | -50.1 | -25.9 | -44.1 | -46.9 | -29.7 | -58.5 | -36.8 | -65.6 | -46.9 | -44.7 | -29.0 | -59.5 | -41.6 | -61.6 | -43.7 | 0.3% and 0.25% | -57.8 | -40.2 | Δp_RSO2NH2H, protonation enthalpy of sulfonamide group [9]: -41.0 kJ/mol; pKa [11]: 9.6
COC(=O)c1cc(S(N)(=O)=O)c(Cl)cc1SC1CCCCC1 [Compound 5b, Methyl 4-chloro-2-cyclohexylsulfanyl-5-sulfamoylbenzoate] | -47.4 | -32.0 | -43.6 | -27.2 | -47.5 | -65.0 | -48.9 |  | -39.7 | -65.7 | -48.2 | -52.9 | -38.5 | -62.3 | -45.6 | -65.9 | -49.2 | 0.4% | -62.1 | -45.7 | -TΔSintr CAXII [2]: -19.9 kJ/mol; N (ITC, observed fitted parameter) CAXII ([2]; single repeats, pH 7.0, 37 °C, Figure S8): 1.0 and 1.1; ΔGintr CAXIII [3]: -62.0 kJ/mol; Δp_RSO2NH2H, protonation enthalpy of sulfonamide group [9]: -33.3 kJ/mol; pKa [11]: 9.4; ΔGobs CAIII [13]: ≥ -22.0 kJ/mol; ΔGintr CAIV [14]: -60.1 kJ/mol; ΔGobs CAIV [14]: -42.6 kJ/mol
COC(=O)c1cc(S(N)(=O)=O)c(S(=O)(=O)Cc2ccccc2)cc1Cl [Compound 7c, Methyl 4-benzylsulfonyl-2-chloro-5-sulfamoylbenzoate] | ≥ -39.6 | ≥ -22.0 |  |  | -22.9 | ≥ -40.4 | ≥ -22.0 | -45.8 | -23.0 | -56.1 | -36.2 | ≥ -38.8 | ≥ -22.0 | ≥ -41.0 | ≥ -22.0 | -49.8 | -30.7 | 0.2% | ≥ -40.9 | ≥ -22.1 | ΔGintr CAXIII [3]: -39.8 kJ/mol; solubility [15]: LS; ΔGintr CAXII [16]: -49.8 kJ/mol; ΔGobs CAXII [16]: -30.7 kJ/mol; ΔGintr CAIII [13]: ≥ -42.3 kJ/mol; ΔGobs CAIII [13]: ≥ -22.0 kJ/mol; ΔGintr CAIV [14]: -50.9 kJ/mol; ΔGobs CAIV [14]: -31.1 kJ/mol
COC(=O)c1cc(S(N)(=O)=O)c(Br)cc1Sc1ccccc1 [Compound 6a, Methyl 4-bromo-2-(phenylsulfanyl)-5-sulfamoylbenzoate] | -39.5 | -24.1 |  |  | -46.3 | -60.7 | -44.6 | -58.3 | -37.9 | -65.0 | -47.5 | -47.7 | -33.3 | -56.4 | -39.6 | -63.5 | -46.8 | 0.4% | -58.5 | -42.1 | ΔGintr CAXIII [3]: -60.8 kJ/mol; solubility [15]: LS; ΔGintr CAXII [16]: -62.5 kJ/mol; ΔGobs CAXII [16]: -45.8 kJ/mol; ΔGintr CAIII [13]: ≥ -39.9 kJ/mol; ΔGobs CAIII [13]: ≥ -22.0 kJ/mol; ΔGintr CAIV [14]: -61.4 kJ/mol; ΔGobs CAIV [14]: -43.9 kJ/mol
COC(=O)c1cc(S(N)(=O)=O)c(Cl)cc1S(=O)(=O)c1ccccc1 [Compound 9a, Methyl 2-(benzenesulfonyl)-4-chloro-5-sulfamoylbenzoate] |  |  | -38.0 | -27.4 | -49.0 | -55.8 | -46.8 | -56.5 | -43.1 |  | -50.3 | -48.1 | -40.6 | -65.2 | -55.5 |  | -53.9 | 5.9% and 5.94% | -63.1 | -53.7 | -TΔSintr CAXII [2]: -17.2 kJ/mol; Δp_RSO2NH2H, protonation enthalpy of sulfonamide group [9]: -28.9 kJ/mol; ΔHintr CAII [17, 23]: -23.3 kJ/mol; ΔHobs CAII [17, 24]: -10.3 kJ/mol; pKa [11]: 8.2; ΔHintr CAI [18, 23]: -39.7 kJ/mol; ΔHobs CAI [18, 24]: -17.8 kJ/mol; binding to CAII stronger than to CAXII (factor) [19]: 26 fold
COC(=O)c1cc(S(N)(=O)=O)c(SC2CCCCC2)cc1Cl [Compound 3b, Methyl 2-chloro-4-(cyclohexylsulfanyl)-5-sulfamoylbenzoate] | -40.2 | -23.7 | -48.0 | -29.1 | -43.3 | -46.6 | -29.4 | -60.1 | -38.5 | -75.0 | -56.3 | -44.0 | -28.4 |  | -40.5 | -64.8 | -46.9 | 0.3% and 0.25% | -56.7 | -39.2 | ΔGintr mimic-CAIX [20]: -67.4 kJ/mol; -TΔSintr CAXII [2]: -14.3 kJ/mol; ΔGintr CAXIII [3]: -59.0 kJ/mol; -TΔSintr CAIX ([21]; intrinsic, 37 °C): -45.1 kJ/mol; ΔHintr CAIX [21, 23]: -29.9 kJ/mol; ΔHobs CAIX [21, 24]: -10.5 kJ/mol; binding affinity, times stronger to CAIX than CAXII [6]: 150 times; native CAIX bound more strongly than mimic-CAIX [6]: 10 fold; Δp_RSO2NH2H, protonation enthalpy of sulfonamide group [9]: -35.7 kJ/mol; pKa [11]: 9.6; ΔHintr mimic CAIX ([22]; intrinsic, 37 °C, calculated using protonation enthalpy of CAII): -31.2 kJ/mol; ΔHobs mimic CAIX [22, 24]: -10.0 kJ/mol; ΔGintr CAIII [13]: -45.2 kJ/mol; ΔGobs CAIII [13]: -26.1 kJ/mol; ΔGintr CAIV [14]: -56.7 kJ/mol; ΔGobs CAIV [14]: -38.0 kJ/mol
